Results reported in patent publication US8580751B2, “Esterified α-galactosylceramide” (Riken, priority 2008, dated 2013).

Assays:
[1] = system: human NKT cells; details: human system; cited from earlier work
[2] = system: IFN-γ; test: IFN-γ content in serum after intraperitoneal administration of synthetic glycolipid to mouse (sandwich ELISA); type: in vivo; details: 100 μg/kg body weight intraperitoneally, C57BL/6 mice, 6-24 hr (compounds 23, 24) or 3-60 hr (compound 33) after administration
Protocol: (§1) A 1 mg/mL dimethyl sulfoxide (DMSO) solution was prepared for each of α-GalCer, compound 23 and compound 24. The solutions were diluted with saline (manufactured by Otsuka Pharmaceutical Co., Ltd.) containing 0.5% Tween 20 (Bio-Rad) such that the dose would be 100 μg/kg body weight when 200 μL was intraperitoneally administered to one mouse.
(§2) Each of the prepared solutions (200 μL) of compounds 23 and 24 was intraperitoneally injected to C57BL/6 mice (2 per group). α-GalCer was used as a control substance, and 200 μL of α-GalCer solution prepared to a dose of 100 μg/kg body weight according to a similar method was injected intraperitoneally. A group administered with a medium (200 μL of saline containing 0.5% Tween 20) was taken as a negative control. The blood (80 μL) was taken from the orbital plexus venosus after the lapse of 6, 12 and 24 hr from the administration, and the serum was prepared.
(§3) The content of IFN-γ in the serum after lapse of 6, 12 and 24 hr from the administration was measured by sandwich ELISA (ENDOGEN). In addition, the content of IL-4 in the serum after lapse of 12 hr from the administration was measured by Cytometric bead array system (BD Biosciences), which is one kind of the ELISA method.
(§4) Using α-GalCer and compound 33, and according to a method similar to the above-mentioned Experimental Example 1, the blood (80 μL) was taken from the orbital plexus venosus after the lapse of 3, 6, 12, 24, 36, 48 and 60 hr from the administration, and the serum was prepared.
(§5) The content of IFN-γ in the serum after lapse of 3, 6, 12, 24, 36, 48 and 60 hr from the administration was measured by a method similar to the above-mentioned Experimental Example 1. In addition, the content of IL-4 in the serum after lapse of 3, 6 and 12 hr from the administration was measured by a method similar to the above-mentioned Experimental Example 1.

[3] = system: IL-4; test: IL-4 content in serum after intraperitoneal administration of synthetic glycolipid to mouse (Cytometric bead array system); type: in vivo; details: 100 μg/kg body weight intraperitoneally, C57BL/6 mice, 12 hr (compounds 23, 24) or 3, 6, 12 hr (compound 33) after administration
Protocol: as §1, §2, §3, §4, §5

[4] = system: NKT cells; details: series of synthetic analogs of α-galactosylceramide; cited from earlier work
[5] = system: NKT cells; details: cited from earlier work

Row | SMILES | activity on human NKT cells in vitro [1] | production of IFN-γ as compared to α-GalCer [2] | production of IL-4 as compared to α-GalCer [3] | other results
1 | CCCCCCCCCCCCCCCCCCCCCCCCCC(=O)N[C@@H](CC[C@H]1OC(CO)[C@H](O)C(O)C1O)[C@H](O)[C@H](O)CCCCCCCCCCCCCC (stereo partly drawn) [α-C-GalCer] | very weak activity | – | – | –
2 | CCCCCCCCCCCCCCCCCCCCCCCCCC(=O)O[C@@H](CO[C@H]1O[C@H](CO)[C@H](O)[C@H](O)[C@H]1O)[C@H](O)[C@H](O)CCCCCCCCCCCCCC [Compound 24, (2S,3R,4R)-3,4-dihydroxy-2-hexacosanoyloxyoctadecyl α-D-galactopyranoside] | – | equivalent or higher | lower | –
3 | CCCCCCC#CCCCCCC[C@@H](O)[C@@H](O)[C@H](CO[C@H]1O[C@H](CO)[C@H](O)[C@H](O)[C@H]1O)OC(=O)CCCCCCCCCCCCCCCCCCCCCCCCC [Compound 23, (2S,3R,4R)-3,4-dihydroxy-2-hexacosanoyloxy-11-octadecyn-1-yl α-D-galactopyranoside] | – | equivalent or higher | lower | –
4 | CCCCCCCCCCCCCCCCCCCCCCCCCC(=O)N[C@@H](CO[C@H]1OC(CO)[C@H](O)C(O)C1O)[C@H](O)[C@H](O)CCCCCCCCCCCCCC (stereo partly drawn) [α-GalCer] | – | – | – | immunostimulatory activity [4]: induces the strongest activity
5 | CCCCCCCCCCCCCCCCCCCCCCCCCC(=O)O[C@@H](CO[C@H]1O[C@H](COC)[C@H](O)[C@H](O)[C@H]1O)[C@H](O)[C@H](O)CCCCCCCCCCCCCC [Compound 33, (2S,3R,4R)-3,4-dihydroxy-2-hexacosanoyloxyoctadecyl 6-O-methyl-α-D-galactopyranoside] | – | equivalent or higher | lower | –
6 | CCCCCCCCCCCCCCCCCCCCCCCCCC(=O)N[C@@H](CO[C@H]1CC(CO)[C@H](O)C(O)C1O)[C@H](O)[C@H](O)CCCCCCCCCCCCCC (stereo partly shown) | strong activity | – | – | IFN-γ production by NKT cells [5]: strongly induces
